From ChEMBL document CHEMBL5393453, “Compositions and methods of using the same for treatment of neurodegenerative and mitochondrial disease” (2021) come the findings set out here.

Molecules are shown by their SMILES.

The nature of series [1]: Cytotoxicity against human HeLa cells expressing YFP parkin treated with FCCP/ oligomycin assessed as highest safety dose by DAPI staining analysis. To be noted: read-out: Activity. Type of series: toxicity, cell-based.
Series [2] is described as follows: Cytotoxicity against human HeLa cells expressing YFP parkin assessed as highest safety dose by DAPI staining analysis. The format is toxicity, cell-based. The conditions noted are these: read-out: Activity.

`CO[C@@H]1CCN([C@H]2COc3ccccc3[C@@H]2Nc2ncnc3[nH]c(C(F)(F)F)cc23)C1`: the MNTC in series [1] amounted to 3.4 µM; in series [2], 25 µM.
In the case of `c1ccc2c(c1)CC[C@H](C1CCOCC1)[C@H]2Nc1ncnc2[nH]c(C3CC3)cc12` (single isomer, unassigned), the MNTC was determined as 2.1 µM in series [1] and 25 µM in series [2].
For `C[C@@H]1CN([C@@H]2COc3cc(F)ccc3[C@H]2Nc2ncnc3[nH]c(C(F)(F)F)cc23)C[C@H](C)O1`, in that order: 2.2 µM and 25 µM.
Take `C[C@@H]1CN([C@H]2COc3cc(F)ccc3[C@@H]2Nc2ncnc3[nH]c(C4CC4)cc23)CCO1`: the MNTC in series [1] is 2 µM; in series [2] it was 16.7 µM.
For `C[C@H]1CN([C@@H]2COc3ccccc3[C@H]2Nc2ncnc3[nH]c(C(F)(F)F)cc23)CCO1`, in that order: 19.4 µM and 19.4 µM.
In the same order, the values of `FC(F)(F)c1cc2c(N[C@H]3c4ccccc4OC[C@@H]3N3C[C@H]4COC[C@H]4C3)ncnc2[nH]1` are 25 µM and 25 µM.
For `C[C@@H]1CN([C@H]2COc3cc(F)ccc3[C@@H]2Nc2ncnc3[nH]c(C(F)(F)F)cc23)C[C@H](C)O1` (single isomer, unassigned), in that order: 9.9 µM and 25 µM.
Consider `Fc1ccc2c(c1)CC[C@H](N1C[C@@H]3COC[C@H]3C1)[C@H]2Nc1ncnc2[nH]c(C3CC3)cc12`, for which the MNTC in series [1] and in series [2] was 25 µM each time.
Take `COC[C@@H]1CCN(C2COc3ccccc3C2Nc2ncnc3[nH]c(C4CC4)cc23)C1` (single isomer, unassigned): the MNTC was 1.4 µM in series [1] and 25 µM in series [2].
For the molecule `c1ccc2c(c1)CC[C@H](N1C[C@H]3COC[C@H]3C1)[C@H]2Nc1ncnc2[nH]c(C3CC3)cc12`, the MNTC in series [1] was determined as 0.9 µM; in series [2], 25 µM.
For `C[C@@H]1CN([C@H]2CCc3ccccc3[C@@H]2Nc2ncnc3[nH]c(C4CC4)cc23)CCO1` (single isomer, unassigned), in that order: 1.3 µM and 25 µM.
In the same order, the values of `Fc1ccc2c(c1)CC[C@H](N1C[C@H]3COC[C@@H]3C1)[C@H]2Nc1ncnc2[nH]c(C(F)(F)F)cc12` are 9.1 µM and 25 µM.
For `FC(F)(F)c1cc2c(NC3c4ccccc4OCC3N3C[C@@H]4COC[C@H]4C3)ncnc2[nH]1` (stereo partly drawn), the MNTC in series [1] and in series [2] was 25 µM in each case.
Turning to `Fc1ccc2c(c1)OC[C@H](N1C[C@@H]3COC[C@H]3C1)[C@H]2Nc1ncnc2[nH]c(C3CC3)cc12` (single isomer, unassigned), the results for the MNTC in series [1] and in series [2] were 13.9 µM and 25 µM, respectively.
For `C[C@@H]1CN([C@@H]2COc3ccccc3[C@H]2Nc2ncnc3[nH]c(C4CC4)cc23)C[C@H](C)O1`, in that order: 1.2 µM and 25 µM.
In the case of `c1ccc2c(c1)CC[C@H](N1C[C@@H]3COC[C@H]3C1)[C@H]2Nc1ncnc2[nH]c(C3CC3)cc12`, the MNTC was 3 µM in series [1] and 25 µM in series [2].
Take `c1ccc2c(c1)CC[C@@H](N1CCOCC1)[C@@H]2Nc1ncnc2[nH]c(C3CC3)cc12` (single isomer, unassigned): the MNTC in series [1] and in series [2] was 25 µM throughout.
`CO[C@H]1CCN([C@H]2COc3ccccc3[C@@H]2Nc2ncnc3[nH]c(C(F)(F)F)cc23)C1`: the MNTC in series [1] was 1.1 µM; in series [2] it was 25 µM.
In the same order, the values of `CO[C@H]1CCN([C@H]2COc3ccccc3[C@@H]2Nc2ncnc3[nH]c(C4CC4)cc23)C1` are 1.1 µM and 25 µM.
In the same order, the values of `C[C@@H]1CN([C@@H]2COc3ccccc3[C@H]2Nc2ncnc3[nH]c(C(F)(F)F)cc23)C[C@H](C)O1` are 2.3 µM and 25 µM.
For `FC(F)(F)c1cc2c(N[C@H]3c4ccccc4OC[C@H]3C3CCCOC3)ncnc2[nH]1` (mixture of isomers), in that order: 25 µM and 25 µM.
On to `C[C@@H]1CN([C@H]2CCc3ccccc3[C@@H]2Nc2ncnc3[nH]c(C(F)(F)F)cc23)CCO1` (single isomer, unassigned), for which the MNTC was 3.7 µM in series [1] and 25 µM in series [2].
For `C[C@H]1CN([C@H]2COc3ccccc3[C@@H]2Nc2ncnc3[nH]c(C4CC4)cc23)CCO1`, in that order: 15.1 µM and 25 µM.
For `C[C@@H]1CN([C@H]2COc3ccccc3[C@@H]2Nc2ncnc3[nH]c(C(F)(F)F)cc23)C[C@H](C)O1` (single isomer, unassigned), in that order: 7.1 µM and 25 µM.
In the same order, the values of `C[C@@H]1CN([C@H]2COc3cc(F)ccc3[C@@H]2Nc2ncnc3[nH]c(C4CC4)cc23)C[C@H](C)O1` (single isomer, unassigned) are 2 µM and 25 µM.
With `C[C@@H]1CN([C@H]2COc3ccccc3[C@@H]2Nc2ncnc3[nH]c(C4CC4)cc23)C[C@H](C)O1` (single isomer, unassigned), the MNTC in series [1] amounted to 2.3 µM; in series [2] it was 25 µM.
For `Fc1ccc2c(c1)CC[C@H](N1C[C@H]3COC[C@@H]3C1)[C@H]2Nc1ncnc2[nH]c(C3CC3)cc12`, in that order: 11.7 µM and 25 µM.
For `C[C@@H]1CN([C@@H]2COc3cc(F)ccc3[C@H]2Nc2ncnc3[nH]c(C4CC4)cc23)C[C@H](C)O1`, in that order: 1.2 µM and 25 µM.
In the same order, the values of `C[C@H]1CN([C@@H]2COc3cc(F)ccc3[C@H]2Nc2ncnc3[nH]c(C4CC4)cc23)CCO1` are 7.4 µM and 25 µM.
Turning to `C[S@@](=N)(=O)C1CN(C2COc3ccccc3C2Nc2ncnc3[nH]c(C(F)(F)F)cc23)C1` (single isomer, unassigned), the MNTC in series [2] came out at 25 µM.
For the molecule `OC(C1CCOCC1)[C@H]1COc2ccccc2[C@@H]1Nc1ncnc2[nH]c(C(F)(F)F)cc12` (stereo partly drawn), the MNTC in series [2] turned out to be 25 µM.
Still for that read-out and setting: with `c1ccc2c(c1)OC[C@@H](N1CCOCC1)[C@@H]2Nc1ncnc2[nH]c(C3CC3)cc12` (single isomer, unassigned) the figure was 25 µM; with `C[C@@H]1COCCN1[C@H]1CCc2ccccc2[C@@H]1Nc1ncnc2[nH]c(C3CC3)cc12` (single isomer, unassigned), 2.8 µM; with `FC1COCCC1[C@H]1COc2ccccc2[C@@H]1Nc1ncnc2[nH]c(C(F)(F)F)cc12` (single isomer, unassigned), 25 µM.
On to `C[C@@H]1COCCN1[C@@H]1CCc2ccccc2[C@H]1Nc1ncnc2[nH]c(C(F)(F)F)cc12` (single isomer, unassigned), for which the MNTC in series [2] is 25 µM.
Still for that read-out and setting: with `C[C@H]1CN([C@H]2COc3cc(F)ccc3[C@@H]2Nc2ncnc3[nH]c(C4CC4)cc23)CCO1` the figure was 25 µM; with `C[C@H]1COCCN1[C@@H]1CCc2ccccc2[C@H]1Nc1ncnc2[nH]c(C(F)(F)F)cc12` (single isomer, unassigned), 25 µM.
With `OC[C@@H]1CN([C@H]2COc3ccccc3[C@@H]2Nc2ncnc3[nH]c(C(F)(F)F)cc23)CCO1` (single isomer, unassigned), the MNTC in series [2] is 25 µM.
`C[C@H]1CN([C@@H]2COc3cc(F)ccc3[C@H]2Nc2ncnc3[nH]c(C(F)(F)F)cc23)CCO1`: the MNTC in series [2] was determined as 25 µM.
